# Reference: PMC10425210 (The Journal of Clinical Investigation, 2023)
# Where “and” joins values, the source holds several entries; their conditions need not be identical. Identical values can stand only once.
# Columns and labels:
# HIV-1 = test: Antiviral assay in human PBMCs infected with HIV-1 clinical isolates; type: cell-based; settings: HIV-1, human PBMCs; EC95 x human plasma shift
# [1] = cited from earlier work
# [2] = through week 52 of treatment across clinical studies; cited from earlier work
# [3] = 927 mg sc twice-yearly after 600 mg oral on days 1 and 2
compound,measurement,setting,value
"CC(C)(C#Cc1ccc(-c2ccc(Cl)c3c(NS(C)(=O)=O)nn(CC(F)(F)F)c23)c([C@H](Cc2cc(F)cc(F)c2)NC(=O)Cn2nc(C(F)(F)F)c3c2C(F)(F)[C@@H]2C[C@H]32)n1)S(C)(=O)=O [LEN, Lenacapavir]",paEC95 (protein-adjusted EC95),HIV-1,2.01 nM and 2.01 ± 1.22 nM
same,time to reach efficacious target concentration after injection,[1]; 927 mg sc after oral lead-in,≤ 2 h
same,efficacious target plasma concentration,[1]; [3],15.5 ng/mL
same,efficacious target plasma concentration (human target Ctrough),[1]; [3],16 nM
same,serious adverse events or laboratory abnormalities,[2],no serious adverse events or laboratory abnormalities related to LEN
